Data as given in publication PMC8539250, “Synthesis and Anti-HIV Activity of a Novel Series of Isoquinoline-Based CXCR4 Antagonists” (Molecules, 2021).
Where two headings read alike, the source gives them in different places.

Legend:
HIV-2 ROD = experiment: Anti-HIV-2 assay in MT-4 cells (tetrazolium-based colorimetric, cytopathic effect); assay type: cell-based; conditions: Human immunodeficiency virus 2, MT4
Experimental: (§1) First, the ability of the compounds to compete with fluorescently labeled CXCL12 (CXCL12^AF647) for binding at CXCR4 was determined. Second, since binding of CXCL12 to CXCR4 results into a transient increase of cytosolic calcium levels, the inhibition of this CXCL12-induced calcium mobilization by the various compounds was also investigated. […] In parallel, the cytotoxicity of the compounds for uninfected MT-4 cells was assessed. […] The CD4 cell line MT-4 was obtained from the American Type Culture Collection (Rockville, MD, USA) and cultured in RPMI 1640 medium (Gibco BRL, Gaithersburg, MD, USA) with 10% heat-inactivated fetal calf serum (Biowhittaker Europe, Verviers, Belgium) and 2 mmol/L L-glutamine (Gibco BRL). […] The anti-HIV-1 and anti-HIV-2 activity in MT-4 cells was determined using a tetrazolium-based colorimetric assay. […] Threefold dilutions of the drugs in 100 μL medium were added to duplicate wells of 96-well flat bottom plates (Iwaki Glass). […] The cytopathic effect induced by the virus was checked regularly microscopically. […] Each assay was performed at least three times. […] Absorbance was recorded using the VersaMax ELISA™ microplate reader (Molecular Devices) and analyzed with the Softmax Pro® software (Molecular Devices, Version 4.0, www.moleculardevices.com, accessed on 10 January 2015). Using mock-infected cells, the cytotoxic concentration 50 (CC50) of each compound was investigated.

CXCR4 [1] = target: T1, CXCR4 (Homo sapiens, UniProt P61073); experiment: CXCL12-induced calcium mobilization assay in U87.CD4.CXCR4 cells (FLIPR); assay type: cell-based; conditions: concentration needed to inhibit CXCL12-induced calcium signaling by 50%, 6.25 nM CXCL12, mean ± SD
Experimental: (§2) First, the ability of the compounds to compete with fluorescently labeled CXCL12 (CXCL12^AF647) for binding at CXCR4 was determined. […] Finally, given the role of CXCR4 as a major coreceptor for HIV entry, the antiviral activity of the compounds against the X4-tropic wild type HIV-1 NL4–3 strain and the HIV-2 ROD strain was determined in MT-4 cells. In parallel, the cytotoxicity of the compounds for uninfected MT-4 cells was assessed.
The calcium mobilization assay has been described in detail previously. U87.CD4.CXCR4 cells (2 × 10^4 cells per well in DMEM/10% FBS/0.01 M HEPES) were seeded in gelatin-coated (Sigma-Aldrich; 0.1% gelatin in DPBS) black-walled 96-well plates and incubated overnight at 37 °C and 5% CO2. The next day, cells were loaded with the fluorescent calcium indicator Fluo-2 acetoxymethyl (AM) ester (4 μM; Abcam) and incubated at room temperature in the dark for 45 min. Then, cells were incubated with various concentrations of the compounds for 10 min prior to the addition of 6.25 nM CXCL12 (in assay buffer). Fluctuations in intracellular calcium levels were measured in real time by the FLIPR Tetra® (Molecular Devices, Sunnyvale, CA, USA) in all 96 wells simultaneously. The response over baseline (after CXCL12 addition) was calculated with the ScreenWorks 4.0® software (Molecular Devices, Version 4.0, www.moleculardevices.com, accessed on 10 January 2015) by dividing the obtained relative light units (RLUs) through the base line measured just before CXCL12 addition. From this the IC50 value for each compound was determined taking into account the negative (i.e., untreated cells without CXCL12 stimulation) and positive (i.e., untreated cells with CXCL12 addition) control samples.

CXCR4 [2] = target: T1, CXCR4; experiment: CXCL12AF647 competition binding assay with Jurkat cells (flow cytometry); set-up: endogenous in cells; host or cells: Jurkat cells
Experimental: as §2
The CXCL12^AF647 binding assay with Jurkat cells has been described previously. Briefly, Jurkat cells were resuspended in assay buffer [Hank’s Balanced Salt Solution (HBSS, Thermo Fisher Scientific), 20 mM HEPES buffer, 0.2% bovine serum albumin (Sigma-Aldrich), pH 7.4] at 3 × 10^5 cells per sample and then treated with various concentrations of the compound at room temperature for 15 min. Afterwards, the cells were incubated with 2.9 nM CXCL12^AF647 (in assay buffer) at room temperature for 30 min in the dark. Cells were fixed in 1% paraformaldehyde in DPBS and specific CXCL12^AF647 binding [i.e., mean fluorescence intensity (MFI)] was quantified by flow cytometry (FACSCanto^TM II; Becton Dickinson). Data were analyzed with FlowJo® Software. The 50% inhibitory concentration (IC50) was calculated for each compound relative to the negative (i.e., autofluorescence of untreated and unlabeled cells) and positive (i.e., untreated cells exposed to CXCL12^AF647 only) control.

HIV-1 NL4.3 = experiment: Anti-HIV-1 assay in MT-4 cells (tetrazolium-based colorimetric, cytopathic effect); assay type: cell-based; conditions: Human immunodeficiency virus 1, MT4
Experimental: as §1

[3] = Cytotoxicity in mock-infected MT-4 cells; assay type: cell-based; conditions: human, mock-infected (uninfected) MT-4 cells, concentration reducing viability of mock-infected MT4 cells by 50%; mean ± SD
Experimental: (§3) First, the ability of the compounds to compete with fluorescently labeled CXCL12 (CXCL12^AF647) for binding at CXCR4 was determined. Second, since binding of CXCL12 to CXCR4 results into a transient increase of cytosolic calcium levels, the inhibition of this CXCL12-induced calcium mobilization by the various compounds was also investigated. […] In parallel, the cytotoxicity of the compounds for uninfected MT-4 cells was assessed. […] The CD4 cell line MT-4 was obtained from the American Type Culture Collection (Rockville, MD, USA) and cultured in RPMI 1640 medium (Gibco BRL, Gaithersburg, MD, USA) with 10% heat-inactivated fetal calf serum (Biowhittaker Europe, Verviers, Belgium) and 2 mmol/L L-glutamine (Gibco BRL). The anti-HIV-1 and anti-HIV-2 activity in MT-4 cells was determined using a tetrazolium-based colorimetric assay. This assay been described in detail before. Threefold dilutions of the drugs in 100 μL medium were added to duplicate wells of 96-well flat bottom plates (Iwaki Glass). […] The cytopathic effect induced by the virus was checked regularly microscopically. […] The absorbance was then recorded at 490 nm with a 96-well plate reader and compared with four cell control replicates (cells without virus and drugs) and four virus control wells (cells with virus but without drug). Each assay was performed at least three times. […] Absorbance was recorded using the VersaMax ELISA™ microplate reader (Molecular Devices) and analyzed with the Softmax Pro® software (Molecular Devices, Version 4.0, www.moleculardevices.com, accessed on 10 January 2015). Using mock-infected cells, the cytotoxic concentration 50 (CC50) of each compound was investigated.

MT-4 cells = experiment: Cytotoxicity in mock-infected MT-4 cells; assay type: cell-based
Experimental: as §3

[4] = 50% protection of MT-4 cells against HIV-induced cytopathicity, mean ± SD, read-out: HIV-2 ROD EC50
[5] = concentration needed to inhibit CXCL12 receptor binding by 50%, Jurkat cells, 2.9 nM CXCL12AF647, mean ± SD
[6] = 50% protection of MT-4 cells against HIV-induced cytopathicity, mean ± SD, read-out: HIV-1 NL4.3 EC50
[7] = MT-4 cells, read-out: EC50 against HIV-2
[8] = MT-4 cells, read-out: EC50 against HIV-1

T1 sequence (P61073 whole entry): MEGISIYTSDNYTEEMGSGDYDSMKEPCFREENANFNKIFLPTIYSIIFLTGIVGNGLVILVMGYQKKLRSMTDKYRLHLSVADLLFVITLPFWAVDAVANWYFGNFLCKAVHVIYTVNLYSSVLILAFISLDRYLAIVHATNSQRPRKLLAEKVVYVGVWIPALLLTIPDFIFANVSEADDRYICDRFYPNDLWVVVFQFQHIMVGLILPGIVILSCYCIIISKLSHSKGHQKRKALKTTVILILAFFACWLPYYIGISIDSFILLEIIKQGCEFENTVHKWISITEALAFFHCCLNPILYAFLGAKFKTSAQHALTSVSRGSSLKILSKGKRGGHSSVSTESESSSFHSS

## COc1cc2ccnc(CN(CCCCN)C3CCCc4cccnc43)c2cc1OC (stereo not drawn) [Compound 19a, N1-((6,7-Dimethoxyisoquinolin-1-yl)methyl)-N1-(5,6,7,8-tetrahydroquinolin-8-yl)butane-1,4-diamine]
HIV-2 ROD; [4]
  EC50: 42 ± 13 nM
CXCR4 [1]
  IC50: 25 ± 8.1 nM
CXCR4 [2]; [5]
  IC50: 7.2 ± 3.2 nM
HIV-1 NL4.3; [6]
  EC50: 74 ± 27 nM
[3]
  CC50 at 4 d: > 100000 nM

## COc1ccc2c(CN(CCCCN)C3CCCc4cccnc43)nccc2c1 (stereo not drawn) [Compound 19b, N1-((6-Methoxyisoquinolin-1-yl)methyl)-N1-(5,6,7,8-tetrahydroquinolin-8-yl)butane-1,4-diamine]
HIV-2 ROD; [4]
  EC50: 77 ± 19 nM
CXCR4 [1]
  IC50: 28 ± 4.9 nM
CXCR4 [2]; [5]
  IC50: 2.5 ± 1.2 nM
HIV-1 NL4.3; [6]
  EC50: 61 ± 31 nM
[3]
  CC50 at 4 d: 11100 ± 540 nM

## NCCCCN(Cc1nccc2cc(F)ccc12)C1CCCc2cccnc21 (stereo not drawn) [Compound 19c, N1-((6-Fluoroisoquinolin-1-yl)methyl)-N1-(5,6,7,8-tetrahydroquinolin-8-yl)butane-1,4-diamine]
HIV-2 ROD; [4]
  EC50: 11 ± 5.6 nM
CXCR4 [1]
  IC50: 33 ± 21 nM
CXCR4 [2]; [5]
  IC50: 8.9 ± 5.6 nM
HIV-1 NL4.3; [6]
  EC50: 16 ± 12 nM
[3]
  CC50 at 4 d: 18100 ± 6820 nM

## NCCCCN(Cc1nccc2cc(Br)ccc12)C1CCCc2cccnc21 (stereo not drawn) [Compound 19d, N1-((6-Bromoisoquinolin-1-yl)methyl)-N1-(5,6,7,8-tetrahydroquinolin-8-yl)butane-1,4-diamine]
HIV-2 ROD; [4]
  EC50: 550 ± 360 nM
CXCR4 [1]
  IC50: 440 ± 210 nM
CXCR4 [2]; [5]
  IC50: 26 ± 1.7 nM
HIV-1 NL4.3; [6]
  EC50: 550 ± 360 nM
[3]
  CC50 at 4 d: 43600 ± 1770 nM

## NCCCCN(Cc1nccc2ccccc12)C1CCCc2cccnc21 (stereo not drawn) [Compound 19e, N1-(Isoquinolin-1-ylmethyl)-N1-(5,6,7,8-tetrahydroquinolin-8-yl)butane-1,4-diamine]
HIV-2 ROD; [4]
  EC50: 26 ± 30 nM
HIV-2 ROD; [7]
  EC50: < 100 nM
CXCR4 [1]
  IC50: 130 ± 41 nM
CXCR4 [2]; [5]
  IC50: 9.2 ± 4.2 nM
HIV-1 NL4.3; [6]
  EC50: 84 ± 15 nM
HIV-1 NL4.3; [8]
  EC50: < 100 nM
[3]
  CC50 at 4 d: 26700 ± 18600 nM
MT-4 cells
  cytotoxicity for the MT4 cell line (in words): lack cytotoxicity

## NCCCCN(Cc1ccccn1)C1CCCc2cccnc21 (stereo not drawn) [Compound 20, N1-(Pyridin-2-ylmethyl)-N1-(5,6,7,8-tetrahydroquinolin-8-yl)butane-1,4-diamine]
HIV-2 ROD; [4]
  EC50: 58 ± 22 nM
HIV-2 ROD; [7]
  EC50: < 100 nM
HIV-1 NL4.3; [6]
  EC50: 58 ± 71 nM
HIV-1 NL4.3; [8]
  EC50: < 100 nM
[3]
  CC50 at 4 d: 55400 ± 720 nM
MT-4 cells
  cytotoxicity for the MT4 cell line (in words): lack cytotoxicity

## COc1cc2ccnc(CN(CCCCN)Cc3ncccc3C)c2cc1OC [Compound 24a, N1-((6,7-dimethoxyisoquinolin-1-yl)methyl)-N1-((3-methylpyridin-2-yl)methyl)butane-1,4-diamine]
HIV-2 ROD; [4]
  EC50: 24 ± 1.8 nM
HIV-2 ROD; [7]
  EC50: < 100 nM
CXCR4 [1]
  IC50: 13 ± 5.3 nM
CXCR4 [2]; [5]
  IC50: 3.2 ± 0.99 nM
HIV-1 NL4.3; [6]
  EC50: 23 ± 8 nM
HIV-1 NL4.3; [8]
  EC50: < 100 nM
[3]
  CC50 at 4 d: > 100000 nM
MT-4 cells
  cytotoxicity for the MT4 cell line (in words): lack cytotoxicity

## COc1ccc2c(CN(CCCCN)Cc3ncccc3C)nccc2c1 [Compound 24b, N1-((6-Methoxyisoquinolin-1-yl)methyl)-N1-((3-methylpyridin-2-yl)methyl)butane-1,4-diamine]
HIV-2 ROD; [4]
  EC50: > 9270 nM
CXCR4 [1]
  IC50: 3850 ± 190 nM
CXCR4 [2]; [5]
  IC50: 890 ± 460 nM
HIV-1 NL4.3; [6]
  EC50: > 9270 nM
[3]
  CC50 at 4 d: 9270 ± 460 nM

## Cc1cccnc1CN(CCCCN)Cc1nccc2cc(F)ccc12 [Compound 24c, N1-((6-Fluoroisoquinolin-1-yl)methyl)-N1-((3-methylpyridin-2-yl)methyl)butane-1,4-diamine]
HIV-2 ROD; [4]
  EC50: 3.8 ± 0.29 nM
HIV-2 ROD; [7]
  EC50: < 100 nM
CXCR4 [1]
  IC50: 6.1 ± 1 nM
CXCR4 [2]; [5]
  IC50: 0.64 ± 0.17 nM
HIV-1 NL4.3; [6]
  EC50: 6.2 ± 5.9 nM
HIV-1 NL4.3; [8]
  EC50: < 100 nM
[3]
  CC50 at 4 d: 31000 nM
MT-4 cells
  cytotoxicity for the MT4 cell line (in words): lack cytotoxicity
MT-4 cells; concentration reducing viability of mock-infected MT4 cells by 50%, mean ± SD
  CC50: 30800 ± 880 nM

## Cc1cccnc1CN(CCCCN)Cc1nccc2cc(Br)ccc12 [Compound 24d, N1-((6-Bromoisoquinolin-1-yl)methyl)-N1-((3-methylpyridin-2-yl)methyl)butane-1,4-diamine]
HIV-2 ROD; [4]
  EC50: 2540 ± 910 nM
CXCR4 [1]
  IC50: 690 ± 230 nM
CXCR4 [2]; [5]
  IC50: 39 ± 24 nM
HIV-1 NL4.3; [6]
  EC50: 2540 ± 910 nM
[3]
  CC50 at 4 d: 29500 ± 9760 nM

## Cc1cccnc1CN(CCCCN)Cc1nccc2ccccc12 [Compound 24e, N1-(Isoquinolin-1-ylmethyl)-N1-((3-methylpyridin-2-yl)methyl)butane-1,4-diamine]
HIV-2 ROD; [4]
  EC50: 2290 ± 350 nM
CXCR4 [1]
  IC50: 930 ± 720 nM
CXCR4 [2]; [5]
  IC50: 26 ± 14 nM
HIV-1 NL4.3; [6]
  EC50: 770 ± 290 nM
[3]
  CC50 at 4 d: 40900 ± 6530 nM

## Cc1cccnc1CN(CCCCN)Cc1ccccn1 [Compound 25, N1-((3-Methylpyridin-2-yl)methyl)-N1-(pyridin-2-ylmethyl)butane-1,4-diamine]
HIV-2 ROD; [4]
  EC50: 170 ± 160 nM
CXCR4 [1]
  IC50: 180 ± 23 nM
CXCR4 [2]; competition with CXCL12 for binding to CXCR4
  IC50: 0.6 nM
CXCR4 [2]; [5]
  IC50: 6.2 ± 0.57 nM
HIV-1 NL4.3; [6]
  EC50: 230 ± 210 nM
[3]
  CC50 at 4 d: 79800 ± 13100 nM

## c1cc(CN2CCCNCCNCCCNCC2)ccc1CN1CCCNCCNCCCNCC1 [Plerixafor, reference compound]
HIV-2 ROD; [4]
  EC50: 8.1 ± 4.2 nM
HIV-1 NL4.3; [6]
  EC50: 4.9 ± 3.2 nM
[3]
  CC50 at 4 d: 6290 ± 720 nM
